Results on one compound are retold here after patent US9868707B2, “Small molecule agonists of neurotensin receptor 1” (SANFORD-BURNHAM MEDICAL RESEARCH INSTITUTE, priority 2012, dated 2018).

Values joined by “and” are separate entries in the source; they are usually repeats but may differ in a detail not shown here. Equal values may be shown once.

In one data set the test system is signal. The data set is described as follows: Panlabs/Ricerca lead profiling panel, signal. The data set is classed as binding. The settings on record: @ 10 μM. From the text:
(§1) However, these activities in in vitro binding assays may not translate into functional modulation of these receptors.

Data set [1] relates to Fa2N-4 immortalized human hepatocytes. In words: Cell viability with ATP-lite (hepatic toxicity). The data set is classed as cell-based. The protocol:
Hepatic toxicity of compounds was determined with Fa2N-4 immortalized human hepatocytes using the ATP-lite 1-step assay (Perkin Elmer). assay according to the manufacturer's instructions. Fa2N-4 cells (XenoTech, Kansas City, Kans.) were seeded at 50,000 cells/well, and incubated with a range of concentrations of the test compound (0.01 μM-50 μM) in MFE support, media for 24 hrs at 37° C., 5% CO2. At the end of the experiment, cell viability was determined by cellular ATP levels using the ATP-lite kit according to the manufacturer's instructions Luminescence was measured on the Infinite M200 plate reader (Tecan US).

Another data set relates to plasma proteins. In words: Plasma protein binding, Rapid Equilibrium Device, human plasma. The settings on record: species not stated. The data set is classed as in vitro ADME. Here is the method: (§2) The extent of compound bound to plasma proteins was measured using the Rapid Equilibrium Device (Pierce Thermo Scientific, Rockford Ill.). The base plate was rinsed with […] followed by 2× washes with ultrapure water and allowed to dry. Human and mouse plasma (BioChemed Services, Winchester Va.) collected in EDTA was allowed to thaw at room temperature and then warmed to 37° C., and diluted 1:1 (v:v) with 1×PBS, pH 7.4, prior to the assay. The compound (1.0 and 10.0 μM final) was added to the chamber containing 300 μl plasma:PBS. Next, 500 μl of dialysis buffer (1×PBS, pH7.4) was added to the buffer chambers of the inserts. The chambers were covered with sealing tape and incubated at 37° C. on an orbital shaker at 300× rpm for 4 hours. After the incubation time, a sample volume of 50 μl from the buffer side, representing the free concentration, and an equivalent sample volume from the plasma side, representing the total concentration, i.e. the free concentration+the concentration of drug bound to protein, were transferred from the dialysis cells to a 96 deep well plate for LCMS analysis. Results reported are the mean of each reaction duplicate, normalized to the internal standard, and expressed as a percent compound bound after the incubation time. The amount of compound in the supernatant was determined by LC/MS/MS and the percent of free and bound compounds were calculated with the following formulas: Percent of free parent compound=(amount of compound in receiver chamber/amount of compound in donor chamber)*100.

Test in data set [2]: as above
The data set is classed as in vitro ADME. Particulars: human plasma (EDTA), diluted 1:1 with PBS, pH 7.4, Human, read-out: Plasma Protein Binding (% Bound) (converted). Here is the method:
as §2

In another data set the target is T1, NTSR1 (NTR1) (Homo sapiens, UniProt P30989).
T1 construct: host or cells: CHO-K1
The data set is described as follows: NTR1 β-Arrestin dose response (DiscoveRx PathHunter, CHO-K1). The data set is classed as cell-based. Here is the method: The NTR1 β-Arrestin assays were performed using a PathHunter™ eXpress kit (93-0446E2) which contained the NTSR1 (NTR1) CHO cell line, OCC2 media (30-409), as well as the PathHunter Detection Reagents (93-0446E2). The kit was obtained from DiscoveRx (Fremont, Calif.). The assay employed the same neurotensin 1 peptide as a control as was used in the NTR1 primary assay. The assay was run in 1536-well, white, solid-bottom tissue culture plates (3727) from Corning.
On day one of the assay, 5 uL of a cell suspension containing 120,000 NTSR1 (NTR1) CHO-K1 cells per mL in OCC2 media is added to each well of a 1536-well assay plate using a Multidrop Combi. The assay plates are then incubated for 48 hours at 37° C., under 5% CO2. Following the two day incubation, a volume of 20, 10, and 5 nL of 10 and 1.2 mM test compounds in DMSO were transferred from source wells to test compound wells in assay plates with a LabCyte Echo to achieve final assay concentrations ranging from 33 to 1.03 uM for each test sample. Test compound wells and control wells were backfilled with DMSO to achieve a final volume of DMSO of 20 nL or a final assay concentration of 0.33%. […] Plates are again centrifuged as previously described then incubated at room temperature for 1 hour before being read on the PerkinElmer using a luminescent protocol.

The target of another data set is NTR1 (Homo sapiens, UniProt P30989). In words: NTR1 Ca2+ Flux dose response (ChanTest, CHO). The data set is classed as cell-based. The arrangement: host or cells: CHO. Particulars: profiled by ChanTest. Here is the method:
The NTR1 Ca^2+ Flux assay was performed by ChanTest (Rockville, Md.). The assay used a CHO cell line, provided by ChanTest, which stably expressed the NTR1 receptor. The cells were grown and plated in Ham's F12 (11765) that was supplemented with fetal bovine serum (10437). Both were supplied by Gibco/Life Technologies (Carlsbad, Calif.). The DPBS (21-031CV) used in the assay was obtained from Cellgro/Mediatech and the G418 (ant-gn-1) was supplied by Invivogen. The Fluo-4 NW Dye (Invitrogen F36206) used to detect calcium mobilization was sourced by Invitrogen. […]
NTSR1 (NTR1) CHO cells are plated in 20 uL of assay media containing Ham's F12 supplemented with 10% fetal bovine serum and 0.4 mg/mL G418 at a concentration of 1.0×10^6 cells per mL into black, 384-well assay plates with clear bottoms using a Multidrop liquid handler. […] Following the incubation in the presence of dye, the assay is run on a Molecular Devices FlexStation-III using 494 excitation and 516 emission wavelengths set to read for 90 seconds with the addition at 18 seconds of 5 uL of 6× final concentration of test compounds and peptide control diluted in assay media containing 0.1% BSA and no more than 9% DMSO to yield a maximum final DMSO concentration of 1.5%. Percent activation is calculated based on the maximum response minus the minimum value over the time course relative to the neurotensin 1 control peptide at 100 pM. […]
In general terms: A change in cytosolic calcium serves as a functional read-out for many receptors and channels.

Another data set deals with T2, MOR (Homo sapiens, UniProt P35372).
T2 construct: Panlabs/Ricerca (contract panel)
In words: Panlabs/Ricerca lead profiling panel, MOR. The data set is classed as binding. Particulars: @ 10 μM.
Source text: as §1

T2 sequence (P35372 whole entry): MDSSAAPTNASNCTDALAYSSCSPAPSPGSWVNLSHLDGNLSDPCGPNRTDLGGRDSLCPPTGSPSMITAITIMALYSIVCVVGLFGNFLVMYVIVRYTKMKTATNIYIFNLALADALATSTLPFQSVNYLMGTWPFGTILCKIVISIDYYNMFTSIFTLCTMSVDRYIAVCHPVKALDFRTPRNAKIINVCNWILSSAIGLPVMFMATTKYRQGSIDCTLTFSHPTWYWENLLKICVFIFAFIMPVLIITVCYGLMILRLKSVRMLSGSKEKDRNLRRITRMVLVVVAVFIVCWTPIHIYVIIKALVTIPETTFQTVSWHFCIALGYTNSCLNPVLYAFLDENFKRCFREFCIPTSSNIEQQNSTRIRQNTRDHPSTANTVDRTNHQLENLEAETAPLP
Chain of NTR1 (P30989 whole entry): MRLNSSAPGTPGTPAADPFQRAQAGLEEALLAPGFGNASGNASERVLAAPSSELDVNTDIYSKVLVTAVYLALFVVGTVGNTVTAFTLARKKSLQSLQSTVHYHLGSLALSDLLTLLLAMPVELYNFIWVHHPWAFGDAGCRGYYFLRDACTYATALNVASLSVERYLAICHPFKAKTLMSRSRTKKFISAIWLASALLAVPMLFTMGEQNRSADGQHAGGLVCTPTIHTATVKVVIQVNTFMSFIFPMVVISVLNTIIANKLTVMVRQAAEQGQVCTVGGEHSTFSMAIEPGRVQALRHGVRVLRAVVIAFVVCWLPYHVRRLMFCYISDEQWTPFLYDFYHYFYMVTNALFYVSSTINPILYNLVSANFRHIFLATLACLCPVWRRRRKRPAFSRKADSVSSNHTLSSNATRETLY
T1 sequence (P30989 whole entry): as above

In turn, `COc1cc2nc(C3CC3)nc(N3CCN(c4ccccc4OC)CC3)c2cc1OC` [Compound 315, 2-cyclopropyl-6,7-dimethoxy-4-(4-(2-methoxyphenyl)piperazin-1-yl)quinazoline] gave an activity at signal in the data set with signal of 69%. For the same compound, in data set [1], the “window for toxicity towards human hepatocytes” value is over 15 fold. For the same compound, in data set [1] (24 hrs, read-out: Toxicity Towards Fa2N-4 Immortalized Human Hepatocytes LC50), the CC50 was 30 µM and 29.6 µM. Also, in the data set with plasma proteins, the “plasma protein binding” value is “highly plasma protein bound”. Moreover, in data set [2] (1 μM), the fraction unbound at 4 h, 1 μM was 0.0055. Also, the fraction unbound at 4 h, 10 μM in data set [2] (10 μM) is 0.0078. Further, the EC50 on NTSR1 (NTR1) was found to be 3.41 µM. Moreover, the “NTR1 Ca2+ Flux assay activity” value on NTR1 was “not active”. On MOR, the “activity at MOR” value stood at 86%.

For orientation: EC50 means the concentration that produces a half-maximal response. A higher EC50 goes with a less potent agent.
